According to patent publication US20260263593A1, “ALLERGY ANTIGEN AND EPITOPE THEREOF” (HOYU CO., LTD., priority 2018, published 2026):

Columns and labels:
[1] = tested on: IgE antibodies from patients having allergies to each food; assay: Confirmation of epitope cross-reactivity by ELISA with N-terminally biotinylated peptides; type: binding, human; conditions: serum of allergic patient versus nonallergic subject
Method: The binding activity of peptides comprising the amino acid sequences described in the column “Synthesis sequence” and the rightmost column “SEQ ID NO” of Table 3 against IgE antibodies from patients having allergies to each food described in the column “Food with which cross-reactivity was confirmed” in Tables 3-1 to 3-50 was confirmed by ELISA. The peptides were synthesized such that the peptides were N-terminally biotinylated by the Fmoc method.
To be specific, ELISA was carried out according to the following procedure. • (1) The concentrations of the biotinylated peptides were adjusted to 10 μg/mL with PBST (0.1% Tween 20). • (2) Each peptide solution was added at 20 μL to each well of a 384-well plate coated with streptavidin, and shaken at room temperature for one hour. After collection of the solution, the wells were washed with PBS five times. • (3) Pierce Protein-Free (PBS) Blocking Buffer (produced by Thermo) was added at 40 μL thereto and shaken at room temperature for one hour. After removal of the solution, the wells were washed with PBST five times. • (4) 2% serum/Canget SignalSolution I (produced by TOYOBO) was added at 20 μL thereto and shaken at room temperature for one hour. After removal of the solution, the wells were washed with PBST five times. • (5) A diluted secondary antibody solution (1:10000, Canget SignalSolution II (produced by TOYOBO)) was added at 20 μL thereto and shaken at room temperature for one hour. After removal of the solution, the wells were washed with PBST five times. • (6) 1-Step Ultra TMB-ELISA (produced by Thermo) was added at 20 μL thereto and shaken at room temperature for 15 minutes. • (7) 2 M H2SO4 was added at 20 μL thereto. Absorbance at 450 nm was measured.
Peptides having these amino acid sequences were prepared by the same procedure as described in Example 4(A), and the presence or absence of binding thereto of IgE antibodies present in the serum of an allergic patient and the serum of a nonallergic subject was measured. The serum of two nonallergic subjects was measured, and values obtained by dividing the measurement values by an average value thereof were described.
The ordinate of each figure depicts “absorbance of the allergic patient/absorbance of the nonallergic patient (healthy subject)”. Different contrasts of two bar graphs for the same sequences mean separate patients. For example, graph No. 8 and No. 10 in FIG. 7 are results about different patients as to peptides having the same sequences. The names of the cooking ingredients described in each graph are the names of cooking ingredients containing a polypeptide comprising an amino acid sequence serving as the basis of each synthetic sequence used.

[2] = tested on: IgE antibody present in the serum of a shrimp-allergic patient; assay: Epitope mapping (1): array of overlapping 15-amino-acid peptides, chemiluminescence; type: binding, human; conditions: 15-amino-acid peptide array; serum of 37 patients; difference from N2nd value of 5 non-shrimp-allergic subjects at least 35,000

Substance | Epitope cross-reactivity [1] | Peptide bound to an IgE antibody in serum in a patient-specific manner [2]
SEQ ID NO: 593: polypeptide consisting of 4 amino acid residues, epitope sequence of polypeptide (E4) (TLLEPE; VAR_SEQ 1..6 epitope) | confirmed in many samples | –
SEQ ID NO: 636: polypeptide consisting of 4 amino acid residues, epitope sequence of polypeptide (E9) (SQKE; VAR_SEQ 1..4 epitope) | confirmed in many samples | –
SEQ ID NO: 662: polypeptide consisting of 4 amino acid residues, epitope sequence of polypeptide (E11) (NAKR; VAR_SEQ 1..4 epitope) | confirmed in many samples | –
SEQ ID NO: 587: polypeptide consisting of 4 amino acid residues, epitope sequence of polypeptide (E4) (ELEE; VAR_SEQ 1..4 epitope) | confirmed in many samples | –
SEQ ID NO: 595: polypeptide consisting of 4 amino acid residues, epitope sequence of polypeptide (E5) (MEEL; VAR_SEQ 1..4 epitope) | confirmed in many samples | –
SEQ ID NO: 655: polypeptide consisting of 4 amino acid residues, epitope sequence of polypeptide (E11) (KNAK; VAR_SEQ 1..4 epitope) | confirmed in many samples | –
E39: common 15-residue IgE-binding epitope sequence of polypeptide (E39), myosin heavy chain type 1-derived (VQKTNQDKATKDHQI; VAR_SEQ 1..15 epitope) [Epitope E39] | – | bound to an IgE antibody in serum in a patient-specific manner
E47: common 15-residue IgE-binding epitope sequence of polypeptide (E47), phosphopyruvate hydratase-derived (HLKAVIKGRFGLDAT; VAR_SEQ 1..15 epitope) [Epitope E47] | – | bound to an IgE antibody in serum in a patient-specific manner
E11: common 15-residue IgE-binding epitope sequence of polypeptide (E11), myosin heavy chain type 2-derived (RSLHEIEKNAKRFEI; VAR_SEQ 1..15 epitope) [Epitope E11] | – | bound to an IgE antibody in serum in a patient-specific manner
